Where two headings read alike, the source gives them in different places.
Assays:
tubulin [1] = assay: fluorescence-based tubulin polymerization assay; assay type: biochemical, Bos taurus; details: read-out: Anti-tubulin activity (IC50)
tubulin [2] = assay: fluorescence-based tubulin polymerization assay; assay type: biochemical, Bos taurus; details: read-out: Anti-tubulin activity (IC50); remark: listed apart in the source

SMILES	IC50 (tubulin [1]) [nM]	IC50 (tubulin [2]) [nM]
CN1c2cccc(C(=O)Nc3cccnc3)c2Nc2cccc(Cl)c21 [8l, 6-Chloro-5-methyl-N-(pyridin-3-yl)-5,10-dihydrophenazine-1-carboxamide]	2360	–
COc1cccc(NC(=O)c2cccc3c2Nc2cccc(Cl)c2N3C)c1 [8a, 6-Chloro-N-(3-methoxyphenyl)-5-methyl-5,10-dihydrophenazine-1-carboxamide]	2640	–

Reference: publication PMC9064817 (RSC Advances, 2019)
